Assay results as given in BindingDB's records for doi:10.7270/Q2513WMG (The Scripps Research Institute Molecular Screening Center, 2009).

target: Transitional endoplasmic reticulum ATPase (Homo sapiens, UniProt P55072, C522A); experiment: C522A mutant p97 ATPase inhibitors, dose response, counter-screen for p97 inhibitor project, biochemical, luminescence (AID 1544)
Sequence (P55072 2-806 C522A limits assumed): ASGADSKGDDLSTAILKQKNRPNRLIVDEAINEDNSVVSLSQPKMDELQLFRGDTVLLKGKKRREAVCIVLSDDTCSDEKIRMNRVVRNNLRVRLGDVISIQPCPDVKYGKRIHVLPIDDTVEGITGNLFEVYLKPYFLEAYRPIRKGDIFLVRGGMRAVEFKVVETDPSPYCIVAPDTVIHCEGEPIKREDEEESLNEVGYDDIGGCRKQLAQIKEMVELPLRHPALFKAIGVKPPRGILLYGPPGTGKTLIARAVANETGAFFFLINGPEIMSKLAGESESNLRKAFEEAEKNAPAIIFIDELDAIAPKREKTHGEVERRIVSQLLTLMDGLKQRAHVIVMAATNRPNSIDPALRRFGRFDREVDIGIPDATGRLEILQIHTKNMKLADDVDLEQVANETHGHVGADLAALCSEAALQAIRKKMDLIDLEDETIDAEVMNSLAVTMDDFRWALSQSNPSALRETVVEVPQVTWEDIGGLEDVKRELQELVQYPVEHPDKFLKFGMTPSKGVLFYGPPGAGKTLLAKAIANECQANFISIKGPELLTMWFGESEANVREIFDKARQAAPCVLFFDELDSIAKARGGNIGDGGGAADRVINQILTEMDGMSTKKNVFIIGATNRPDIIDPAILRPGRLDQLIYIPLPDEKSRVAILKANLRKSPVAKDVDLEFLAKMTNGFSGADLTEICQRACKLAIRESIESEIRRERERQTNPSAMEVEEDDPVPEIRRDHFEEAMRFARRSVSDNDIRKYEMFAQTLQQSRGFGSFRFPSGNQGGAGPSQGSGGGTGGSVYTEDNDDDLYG

Row | IC50 [µM] | Structure (SMILES)
1 | > 50 | COc1ccc(CN=Nc2nnc(-c3ccccc3)c(=O)[nH]2)cc1 [4-methoxybenzaldehyde (5-oxo-6-phenyl-4,5-dihydro-1,2,4-triazin-3-yl)hydrazone]
2 | > 50 | Cc1ccc(C)c(SCC(=O)OCC(=O)C(C#N)c2nc3ccccc3[nH]2)c1 (configuration not stated) [MLS000392255]
3 | > 50 | Cc1ccc(SCC(=O)C(C#N)c2nc3ccccc3s2)cc1 (configuration not stated) [(2Z)-2-(3H-1,3-benzothiazol-2-ylidene)-3-keto-4-(p-tolylthio)butyronitrile]
4 | > 50 | On1[o+]nc2c1CCc1nc(-c3ccccc3)[n-]c1-2 [3-oxidanidyl-7-phenyl-4,5-dihydro-1H-imidazo[4,5-g][2,1,3]benzoxadiazol-3-ium]

Continued, molecule first:

Row | Structure (SMILES) | IC50 [µM]
5 | CN(C)[C@@H]1C(=O)C(C(N)=O)C(=O)[C@@]2(O)C(=O)C3C(=O)c4c(O)cccc4[C@@](C)(O)[C@H]3[C@H](O)[C@@H]12 (stereo partly drawn) [(2E,4S,4aR,5S,5aR,6S,12aS)-2-[azanyl(oxidanyl)methylidene]-4-(dimethylamino)-6-methyl-5,6,10,11,12a-pentakis(oxidanyl)-4,4a,5,5a-tetrahydrotetracene-1,3,12-trione] | > 50
6 | NS(=O)(=O)c1ccc(N=NCc2ccc(O)c(O)c2O)c([N+](=O)[O-])c1 [4-[[(E)-(2,3-dihydroxy-4-oxo-1-cyclohexa-2,5-dienylidene)methyl]hydrazo]-3-nitrobenzenesulfonamide] | > 50
7 | Oc1ccc(CN=Nc2ccnc3cc(Cl)ccc23)cc1O [(4Z)-4-[[2-(7-chloroquinolin-4-yl)hydrazinyl]methylidene]-2-hydroxycyclohexa-2,5-dien-1-one] | > 50
